Here are results for 14 compounds from patent US9809574B2, “Isoindoline or isoquinoline compounds, a process for their preparation and pharmaceutical compositions containing them” (LES LABORATOIRES SERVIER, priority 2013, dated 2017).

For one assay, the target named is Bcl-2 protein (histag-Bcl-2, UniProtKB P10415) (Homo sapiens (Human), UniProt P10415). In words: Inhibition of Bcl-2 by the fluorescence polarisation technique. It is filed as binding. The conditions noted are these: fluorescence polarisation test; incubation for 2 hours; read-out: IC50 (nM) Bcl-2 FP. The text has this:
For partial inhibitors, the percentage fluorescence polarisation inhibition for a given concentration of the test compound is indicated.
(In general: In fluorescence polarisation assays a small probe gives low polarisation when free and higher when bound to something large.)

Assay [1] relates to RS4; 11 leukaemia cell line. In words: In vitro cytotoxicity, Microculture Tetrazolium Assay (MTT). It is filed as cell-based. Particulars: Homo sapiens, 11 cells exposed for 48 hours. As for the experimental part:
The cytotoxicity studies were carried out on the RS4; 11 leukaemia cell line and on H146 small Cell Lung Carcinoma cell line. The cells are distributed onto microplates and exposed to the test compounds for 48 hours. The cell viability is then quantified by a colorimetric assay, the Microculture Tetrazolium Assay (Cancer Res., 1987, 47, 939-942).

Bcl-2 protein, sequence (P10415 whole entry): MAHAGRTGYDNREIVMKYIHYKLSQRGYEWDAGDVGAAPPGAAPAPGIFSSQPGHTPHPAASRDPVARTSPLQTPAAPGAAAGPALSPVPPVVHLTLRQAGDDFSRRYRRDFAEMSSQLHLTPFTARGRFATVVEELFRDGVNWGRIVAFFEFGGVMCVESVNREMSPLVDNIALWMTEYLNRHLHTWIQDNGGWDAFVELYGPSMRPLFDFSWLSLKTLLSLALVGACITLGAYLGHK

Turning to `Cc1c(C(=O)N(C)c2ccccc2)cc(-c2cc3c(cc2C(=O)N2Cc4ccccc4C[C@H]2C)CN(C(=O)Cc2ccc(C#N)cc2)CC3)n1C` [Example 150, 5-{2-[2-(4-Cyanophenyl)acetyl]-7-[(3R)-3-methyl-1,2,3,4-tetrahydroisoquinoline-2-carbonyl]-1,2,3,4-tetrahydroisoquinolin-6-yl}-N,1,2-trimethyl-N-phenyl-1H-pyrrole-3-carboxamide], the results for the IC50 (on Bcl-2 protein; in assay [1]) were 4.3 nM and 16 nM, respectively.
On to `Cc1c(C(=O)N(C)c2ccccc2)cc(-c2cc3c(cc2C(=O)N2Cc4ccccc4C[C@H]2CN2CCOCC2)CN(C(=O)Cc2ccc(C#N)cc2)CC3)n1C` [Example 151, 5-{2-[2-(4-Cyanophenyl)acetyl]-7-[(3S)-3-(morpholin-4-ylmethyl)-1,2,3,4-tetrahydroisoquinoline-2-carbonyl]-1,2,3,4-tetrahydroisoquinolin-6-yl}-N,1,2-trimethyl-N-phenyl-1H-pyrrole-3-carboxamide], for which the values for the IC50 (at Bcl-2 protein; in assay [1]) were 5.3 nM and 19 nM, respectively.
For `Cc1c(C(=O)N(C)c2ccccc2)cc(-c2cc3c(cc2C(=O)N2Cc4ccccc4C[C@H]2CN2CCOCC2)CN(C(=O)Oc2ccc(C#N)cc2)CC3)n1C` [Example 152, 4-Cyanophenyl 6-{1,5-dimethyl-4-[methyl(phenyl)carbamoyl]-1H-pyrrol-2-yl}-7-[(3S)-3-(morpholin-4-ylmethyl)-1,2,3,4-tetrahydroisoquinoline-2-carbonyl]-1,2,3,4-tetrahydroisoquinoline-2-carboxylate] the same measures were 6.5 nM and 29 nM.
For `C[C@@H]1Cc2ccccc2CN1C(=O)c1cc2c(cc1-c1cc(C(=O)N(C)c3ccc(O)cc3)c3n1CCCC3)CCN(C(=O)Oc1ccc(NCCN(C)C)cc1)C2` [Example 153, 4-{[2-(Dimethylamino)ethyl]amino}phenyl 6-{1-[(4-hydroxyphenyl)(methyl)carbamoyl]-5,6,7,8-tetrahydroindolizin-3-yl}-7-[(3R)-3-methyl-1,2,3,4-tetrahydroisoquinoline-2-carbonyl]-1,2,3,4-tetrahydroisoquinoline-2-carboxylate], in that order: 4.2 nM and 3.6 nM.
For `C[C@@H]1Cc2ccccc2CN1C(=O)c1cc2c(cc1-c1cc(C(=O)N(C)c3ccc(O)cc3)c3n1CCCC3)CCN(C(=O)Cc1ccc(OCCN(C)C)cc1)C2` [Example 154, 3-[2-(2-{4-[2-(Dimethylamino)ethoxy]phenyl}acetyl)-7-[(3R)-3-methyl-1,2,3,4-tetrahydroisoquinoline-2-carbonyl]-1,2,3,4-tetrahydroisoquinolin-6-yl]-N-(4-hydroxyphenyl)-N-methyl-5,6,7,8-tetrahydroindolizine-1-carboxamide], in that order: 3.9 nM and 5.9 nM.
In the case of `C[C@@H]1Cc2ccccc2CN1C(=O)c1cc2c(cc1-c1cc(C(=O)N(C)c3ccc(O)cc3)c3n1CCCC3)CCN(C(=O)Oc1ccc(CCC(=O)N(C)C)cc1)C2` [Example 155, 4-[2-(Dimethylcarbamoyl)ethyl]phenyl 6-{1-[(4-hydroxyphenyl)(methyl)carbamoyl]-5,6,7,8-tetrahydroindolizin-3-yl}-7-[(3R)-3-methyl-1,2,3,4-tetrahydroisoquinoline-2-carbonyl]-1,2,3,4-tetrahydroisoquinoline-2-carboxylate], the IC50 on Bcl-2 protein came to 3.2 nM; in assay [1], 2.9 nM.
As to `CN(C(=O)c1cc(-c2cc3c(cc2C(=O)N2Cc4ccccc4C[C@H]2CN2CCOCC2)CN(C(=O)COc2ccccc2)C3)n2c1CCCC2)c1ccc(O)cc1` [Example 156, N-(4-Hydroxyphenyl)-N-methyl-3-{6-[(3S)-3-(morpholin-4-ylmethyl)-1,2,3,4-tetrahydroisoquinoline-2-carbonyl]-2-(2-phenoxyacetyl)-2,3-dihydro-1H-isoindol-5-yl}-5,6,7,8-tetrahydroindolizine-1-carboxamide], the IC50 on Bcl-2 protein came to 6.8 nM; in assay [1], 121 nM.
For `Cc1c(C(=O)N(C)c2ccc(O)cc2)cc(-c2cc3c(cc2C(=O)N2Cc4ccccc4C[C@H]2C)CN(C(=O)OC2CCS(=O)(=O)C2)C3)n1C` (stereo partly drawn) [Example 157, 1,1-Dioxo-1λ^6-thiolan-3-yl 5-{4-[(4-hydroxyphenyl)(methyl)carbamoyl]-1,5-dimethyl-1H-pyrrol-2-yl}-6-[(3R)-3-methyl-1,2,3,4-tetrahydroisoquinoline-2-carbonyl]-2,3-dihydro-1H-isoindole-2-carboxylate], in that order: 21 nM and more than 600 nM.
For `C[C@@H]1Cc2ccccc2CN1C(=O)c1cc2c(cc1-c1cc(C(=O)N(c3ccc(O)cc3)c3cnc4c(ccn4C)c3)c3n1CCCC3)CN(C(=O)COc1ccccc1)C2` [Example 158, N-(4-Hydroxyphenyl)-3-{6-[(3R)-3-methyl-1,2,3,4-tetrahydroisoquinoline-2-carbonyl]-2-(2-phenoxyacetyl)-2,3-dihydro-1H-isoindol-5-yl}-N-{1-methyl-1H-pyrrolo[2,3-b]pyridin-5-yl}-5,6,7,8-tetrahydroindolizine-1-carboxamide] the same measures were 4.6 nM and 3.5 nM.
On to `Cc1c(C(=O)N(C)c2ccc(O)cc2)cc(-c2cc3c(cc2C(=O)N2Cc4ccccc4C[C@H]2CN2CCOCC2)CN(C(=O)COc2ccccc2)C3)n1C` [Example 159, N-(4-Hydroxyphenyl)-N,1,2-trimethyl-5-{6-[(3S)-3-(morpholin-4-ylmethyl)-1,2,3,4-tetrahydroisoquinoline-2-carbonyl]-2-(2-phenoxyacetyl)-2,3-dihydro-1H-isoindol-5-yl}-1H-pyrrole-3-carboxamide], for which the IC50 on Bcl-2 protein turned out to be 8.5 nM; in assay [1] it was 163 nM.
For `Cc1c(C(=O)N(C)c2ccc(O)cc2)cc(-c2cc3c(cc2C(=O)N2Cc4ccccc4C[C@H]2C)CN(C(=O)COCc2ccccc2)C3)n1C` [Example 160, 5-{2-[2-(Benzyloxy)acetyl]-6-[(3R)-3-methyl-1,2,3,4-tetrahydroisoquinoline-2-carbonyl]-2,3-dihydro-1H-isoindol-5-yl}-N-(4-hydroxyphenyl)-N,1,2-trimethyl-1H-pyrrole-3-carboxamide] the same measures were 6.9 nM and 86 nM.
For `CCCCN(CCCC)C(=O)c1cc(-c2cc3c(cc2C(=O)N2CCc4ccccc4C2)CN(C(=O)Oc2ccccc2)CC3)n(C)c1C` [Example 161, Phenyl 6-[4-(dibutylcarbamoyl)-1,5-dimethyl-1H-pyrrol-2-yl]-7-(1,2,3,4-tetrahydroisoquinoline-2-carbonyl)-1,2,3,4-tetrahydroisoquinoline-2-carboxylate], in that order: 68 nM and more than 150 nM.
As to `CCCCN(CCCC)C(=O)c1cc(-c2cc3c(cc2C(=O)N2CCc4ccccc4C2)CN(C(=O)Cc2ccccc2)CC3)n(C)c1C` [Example 162, N,N-Dibutyl-1,2-dimethyl-5-[2-(2-phenylacetyl)-7-(1,2,3,4-tetrahydroisoquinoline-2-carbonyl)-1,2,3,4-tetrahydroisoquinolin-6-yl]-1H-pyrrole-3-carboxamide], the IC50 is 33 nM on Bcl-2 protein and more than 150 nM in assay [1].
For `CCCCN(CCCC)C(=O)c1cc(-c2cc3c(cc2C(=O)N2Cc4ccccc4C[C@H]2C)CN(C(=O)Oc2ccccc2)CC3)n(C)c1C` [Example 163, Phenyl 6-[4-(dibutylcarbamoyl)-1,5-dimethyl-1H-pyrrol-2-yl]-7-[(3R)-3-methyl-1,2,3,4-tetrahydroisoquinoline-2-carbonyl]-1,2,3,4-tetrahydroisoquinoline-2-carboxylate] the same measures were 27 nM and more than 150 nM.

The IC50 is the concentration that inhibits the measured activity by half.
